Test results reported in patent US8906929B2, “Inhibitors of human immunodeficiency virus replication” (priority 2012, dated 2014).
pEC50: −log10 of the molar value. Read-outs that look alike come from different tables or passages of the source.

Legend:
[1] = rcm bond, DCE
[2] = rcm bond, Hoveyda-Grubbs II, DCE
[3] = tested on: recombinant NL-Rluc virus; experiment: Inhibition of HIV replication (NL-RLuc virus in MT-2 cells, luciferase readout); type: cell-based; details: 5 days of incubation, 10% FBS
[4] = Human immunodeficiency virus 1, MT2, 120 h

COC(=O)[C@@H](OC(C)(C)C)c1c(C)nc2cc3nn2c1-c1cc(F)c2c(c1)N(CC=CCCc1ccccc1-c1cccc-3c1)CCO2
ring closure, isolated yield ([1]; from C=CCCc1ccccc1-c1cccc(-c2cc3nc(C)c([C@H](OC(C)(C)C)C(=O)OC)c(-c4cc(F)c5c(c4)N(CC=C)CCO5)n3n2)c1, 18-membered ring, Hoveyda-Grubbs II, 8.3 mM, 70.0 °C, 18.0 h): 54.5%

COC(=O)[C@@H](OC(C)(C)C)c1c(C)nc2cc3nn2c1-c1ccc2c(c1)C(CC=CCOc1ccccc1-c1cccc-3c1)CCO2 (stereo partly shown)
ring closure, isolated yield ([1]; from C=CCOc1ccccc1-c1cccc(-c2cc3nc(C)c([C@H](OC(C)(C)C)C(=O)OC)c(-c4ccc5c(c4)C(CC=C)CCO5)n3n2)c1, 18-membered ring, Hoveyda-Grubbs II, 2.06 mM, 70.0 °C, 3.0 h): 84%

COC(=O)[C@@H](OC(C)(C)C)c1c(C)nc2cc3nn2c1-c1ccc2c(c1Cl)N(CC=CCCCOc1ccccc1-c1cccc-3c1)CCO2
ring closure, isolated yield ([1]; from C=CCCCOc1ccccc1-c1cccc(-c2cc3nc(C)c([C@H](OC(C)(C)C)C(=O)OC)c(-c4ccc5c(c4Cl)N(CC=C)CCO5)n3n2)c1, 20-membered ring, Hoveyda-Grubbs II, 27.0 mM, 50.0 °C, 3.0 h): 53.4%

COC(=O)[C@@H](OC(C)(C)C)c1c(C)nc2cc3nn2c1-c1ccc2c(c1Cl)N(CC=CCCc1ccccc1-c1cccc-3c1)CCO2
ring closure, isolated yield ([1]; from C=CCCc1ccccc1-c1cccc(-c2cc3nc(C)c([C@H](OC(C)(C)C)C(=O)OC)c(-c4ccc5c(c4Cl)N(CC=C)CCO5)n3n2)c1, 18-membered ring, Hoveyda-Grubbs II, 70.0 °C, 4.0 h): 73% | ring closure, yield after HPLC ([2]; from C=CCCc1ccccc1-c1cccc(-c2cc3nc(C)c([C@H](OC(C)(C)C)C(=O)OC)c(-c4ccc5c(c4Cl)N(CC=C)CCO5)n3n2)c1, 18-membered ring, 28.0 mM, 50.0 °C, 1.0 h): 26.5%

COC(=O)[C@@H](OC(C)(C)C)c1c(C)nc2cc3nn2c1-c1ccc2c(c1Cl)N(CC=CCOc1cccc(c1)-c1cccc-3c1)CCO2
ring closure, yield after HPLC ([2]; from C=CCOc1cccc(-c2cccc(-c3cc4nc(C)c([C@H](OC(C)(C)C)C(=O)OC)c(-c5ccc6c(c5Cl)N(CC=C)CCO6)n4n3)c2)c1, 19-membered ring, then NaOH, 29.0 mM, 50.0 °C, 5.0 h, 2 steps): 26.6%

COC(=O)[C@@H](OC(C)(C)C)c1c(C)nc2cc3nn2c1N1CCC(C)(CC1)COCC=CCCc1ccccc1-c1cccc-3c1
ring closure, isolated yield ([1]; from C=CCCc1ccccc1-c1cccc(-c2cc3nc(C)c([C@H](OC(C)(C)C)C(=O)OC)c(N4CCC(C)(COCC=C)CC4)n3n2)c1, 20-membered ring, Hoveyda-Grubbs II (10 mol%), 1.23 mM, 70.0 °C, 3.0 h): 98%

COC(=O)[C@@H](OC(C)(C)C)c1c(C)nc2cc3nn2c1N1CCC(C)(CC1)OCC=CC(C)Oc1ccccc1-c1cccc-3c1 (stereo partly shown)
ring closure, yield after HPLC ([2]; from C=CCOC1(C)CCN(c2c([C@H](OC(C)(C)C)C(=O)OC)c(C)nc3cc(-c4cccc(-c5ccccc5OC(C)C=C)c4)nn23)CC1, 19-membered ring, 1.28 mM, 2.0 h): 98%

COC(=O)[C@@H](OC(C)(C)C)c1c(C)nc2cc3nn2c1N1CCC(C)(CC1)OCC=CC[C@@H](C)Oc1ccccc1-c1cccc-3c1
ring closure, isolated yield ([1]; from C=CCOC1(C)CCN(c2c([C@H](OC(C)(C)C)C(=O)OC)c(C)nc3cc(-c4cccc(-c5ccccc5O[C@H](C)CC=C)c4)nn23)CC1, 20-membered ring, Hoveyda-Grubbs II, 1.43 mM, 2.0 h): 100%

COC(=O)[C@@H](OC(C)(C)C)c1c(C)nc2cc3nn2c1N1CCC(C)(CC1)OCC=CC[C@H](C)Oc1ccc(F)cc1-c1cccc-3c1
ring closure, isolated yield ([1]; from C=CCOC1(C)CCN(c2c([C@H](OC(C)(C)C)C(=O)OC)c(C)nc3cc(-c4cccc(-c5cc(F)ccc5O[C@@H](C)CC=C)c4)nn23)CC1, 20-membered ring, Hoveyda-Grubbs II (20 mol%), then NaBH4/MeOH, 5.0 mM, 80.0 °C, 1.5 h, 2 steps): 38%

COC(=O)[C@@H](OC(C)(C)C)c1c(C)nc2cc3nn2c1N1CCC(C)(CC1)OCC=CC[C@H](C)Oc1ccccc1-c1cccc-3c1
ring closure, isolated yield ([1]; from C=CCOC1(C)CCN(c2c([C@H](OC(C)(C)C)C(=O)OC)c(C)nc3cc(-c4cccc(-c5ccccc5O[C@@H](C)CC=C)c4)nn23)CC1, 20-membered ring, Hoveyda-Grubbs II, 1.5 mM, 2.0 h): 70%

Cc1nc2cc3nn2c(c1[C@H](OC(C)(C)C)C(=O)O)N1CCC(C)(CC1)OCCCC[C@H](C)Oc1ccc(Cl)c(C)c1-c1cccc-3c1 [Example 89, (2S)-2-(tert-Butoxy)-2-[(22S)-17-chloro-4,16,22,28-tetramethyl-21,27-dioxa-1,5,7,8-tetraazahexacyclo[26.2.2.1^6,^9.1^10,^14.0^2,^7.0^15,^20]tetratriaconta-2,4, 6(34), 8, 10(33), 11, 13, 15(20),16,18-decaen-3-yl]acetic acid]
pEC50 [3, 4]: 6.96

Cc1cc2c(cc1Cl)-c1cccc(c1)-c1cc3nc(C)c([C@H](OC(C)(C)C)C(=O)O)c(n3n1)N1CCC(C)(CC1)OCCCC[C@@H](C)O2 [Example 90, (2S)-2-(tert-Butoxy)-2-[(22R)-17-chloro-4,18,22,28-tetramethyl-21,27-dioxa-1,5,7,8-tetraazahexacyclo[26.2.2.1^6,^9.1^10,^14.0^2,^7.0^15,^20]tetratriaconta-2,4, 6(34), 8, 10(33), 11, 13, 15 (20),16,18-decaen-3-yl]acetic acid]
pEC50 [3, 4]: 6.80

Cc1cc2c(cc1F)-c1cccc(c1)-c1cc3nc(C)c([C@H](OC(C)(C)C)C(=O)O)c(n3n1)N1CCC(C)(CC1)OCCCC[C@H](C)O2 [Example 91, (2S)-2-(tert-Butoxy)-2-[(22S)-17-fluoro-4,18,22,28-tetramethyl-21,27-dioxa-1,5,7,8-tetraazahexacyclo[26.2.2.1^6,^9.1^10,^14.0^2,^7.0^15,^20]tetratriaconta-2,4,6(34),8,10(33), 11, 13, 15(20),16,18-decaen-3-yl]acetic acid]
pEC50 [3, 4]: 7.33

CCC(C)(C)O[C@H](C(=O)O)c1c(C)nc2cc3nn2c1N1CCC(C)(CC1)OCCCC[C@H](C)Oc1ccc(C)cc1-c1cccc-3c1 [Example 96, (2S)-2-[(2-Methylbutan-2-yl)oxy]-2-[(22S)-4,17,22,28-tetramethyl-21,27-dioxa-1,5,7,8-tetraazahexacyclo[26.2.2.1^6,^9.1^10,^14.0^2,^7.0^15,^20]tetratriaconta-2,4,6(34),8,10(33), 11, 13, 15 (20),16,18-decaen-3-yl]acetic acid]
pEC50 [3, 4]: 7.44

Cc1ccc2c(c1)-c1cccc(c1)-c1cc3nc(C)c([C@H](OC4(C)CCC4)C(=O)O)c(n3n1)N1CCC(C)(CC1)OCCCC[C@H](C)O2 [Example 97, (2S)-2-(1-Methylcyclobutoxy)-2-[(22S)-4,17,22,28-tetramethyl-21,27-dioxa-1,5,7,8-tetraazahexacyclo[26.2.2.1^6,^9.1^10,^14.0^2,^7.0^15,^20]tetratriaconta-2,4, 6(34), 8, 10(33), 11, 13, 15 (20),16,18-decaen-3-yl]acetic acid]
pEC50 [3, 4]: 7.39

Cc1nc2cc3nn2c(c1[C@H](OC(C)(C)C)C(=O)O)N1CCC(C)(CC1)OCCCC[C@H](C)Oc1cccc(F)c1-c1cc-3ccc1F [Example 99]
pEC50 [3, 4]: 7.70

Cc1ccc2c(c1)O[C@@H](C)CC=CCOC1(C)CCN(CC1)c1c([C@H](OC(C)(C)C)C(=O)O)c(C)nc3cc(nn13)-c1cccc-2c1 [Example 105, (2S)-2-(tert-Butoxy)-2-[(22S)-4,18,22,28-tetramethyl-21,27-dioxa-1,5,7,8-tetraazahexacyclo[26.2.2.1^6,^9.1^10,^14.0^2,^7.0^15,^20]tetratriaconta-2,4,6(34),8,10(33), 11, 13, 15(20),16,18,24-undecaen-3-yl]acetic acid]
pEC50 [3, 4]: 7.55

Cc1nc2cc3nn2c(c1[C@H](OC(C)(C)C)C(=O)O)N1CCC(C)(CC1)COCCCCCc1ccccc1-c1cccc-3c1 [Example 106]
pEC50 [3, 4]: 7.05

(2S)-2-(tert-Butoxy)-2-[(22S)-4,17,22,29-tetramethyl-21,28-dioxa-1,5,7,8-tetraazahexacyclo[27.2.2.1^6,^9.1^10,^14.0^2,^7.0^15,^20]pentatriaconta-2,4, 6(35), 8, 10(34), 11, 13, 15 (20),16,18-decaen-3-yl]acetic acid [Example 65]
pEC50 ([3]; read-out: EC50): 7.37

Methyl (2S)-2-(tert-butoxy)-2-[(23E)-4,27-dimethyl-21,26-dioxa-1,5,7,8-tetraazahexacyclo[25.2.2.1^6,^9.1^10,^14.0^2,^7.0^15,^20]tritriaconta-2,4,6(33),8,10(32),11,13,15(20),16,18,23-undecaen-3-yl]acetate
ring closure, isolated yield ([1]; 19-membered ring, Hoveyda-Grubbs II, 1.3 mM): 100%

Methyl (2S)-2-(tert-butoxy)-2-[(24E/Z)-4,17,23,28-tetramethyl-21,27-dioxa-1,5,7,8-tetraazahexacyclo[26.2.2.1^6,^9.1^10,^14.0^2,^7.0^15,^20]tetratriaconta-2,4,6(34),8,10(33), 11,13,15 (20),16,18,24-undecaen-3-yl]acetate
ring closure, isolated yield ([1]; 20-membered ring, Hoveyda-Grubbs II (7 mol%), 4.0 mM, 85.0 °C): 70.6%
